From PubChem BioAssay AID1845219 (Molecular Pharmacology Branch, DTP, NCI, 2023)

Tested on: SYO-1 tumor spheroids, viability % test/control
Assay: Anticancer human tumor SYO-1 cell line growth inhibition;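 note: spheroids exposed to agents for 7 days before viability read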;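 for viability, T/C: 100% = DMSO vehicle control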
Settings: spheroids with HUVEC and MSC; for IC50: curve of first compound; for viability, T/C: stronger effect = lower value
How it was run: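 Complex spheroids of malignant cells with endothelial cells and mesenchymal stem cells; agents alone or combined, from near clinical Cmax (or 10 microM if unknown) down in half-log steps, 0.25% DMSO final.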

**Q.** `O=C(c1cc(Cc2n[nH]c(=O)c3ccccc23)ccc1F)N1CCN(C(=O)C2CC2)CC1` + CC[C@@]1(O)C(=O)OCc2c1cc1n(c2=O)Cc2cc3c(CN(C)C)c(O)ccc3nc2-1 was tested. Which IC50 (second compound 0.003 µM) did it give?
**A.** < 94.9 nM

**Q.** What about the IC50 (second compound 0.00949 µM) of the same compound?
**A.** < 94.9 nM

**Q.** And the IC50 (second compound 0.03 µM)?
**A.** < 94.9 nM

**Q.** And the IC50 (second compound 0.0949 µM)?
**A.** < 94.9 nM

**Q.** What about the IC50 (second compound 0.3 µM) of the same compound?
**A.** < 94.9 nM

**Q.** What about the viability, T/C (second compound 0.003 µM, first compound 0.0949 µM) of the same compound?
**A.** 40.5%

**Q.** What about the viability, T/C (second compound 0.003 µM, first compound 0.3 µM) of the same compound?
**A.** 24.1%

**Q.** And the viability, T/C (second compound 0.003 µM, first compound 0.949 µM)?
**A.** 8.02%

**Q.** And the viability, T/C (second compound 0.003 µM, first compound 3 µM)?
**A.** 2.93%

**Q.** And the viability, T/C (second compound 0.003 µM, first compound 9.49 µM)?
**A.** 2.62%

**Q.** What about the viability, T/C (second compound 0.003 µM, first compound 30 µM) of the same compound?
**A.** 2.56%

**Q.** And the viability, T/C (second compound 0.00949 µM, first compound 0.0949 µM)?
**A.** 2.56%

**Q.** And the viability, T/C (second compound 0.00949 µM, first compound 0.3 µM)?
**A.** 2.35%

**Q.** What about the viability, T/C (second compound 0.00949 µM, first compound 0.949 µM) of the same compound?
**A.** 2.18%

**Q.** And the viability, T/C (second compound 0.00949 µM, first compound 3 µM)?
**A.** 1.79%

**Q.** What about the viability, T/C (second compound 0.00949 µM, first compound 9.49 µM) of the same compound?
**A.** 2.63%

**Q.** And the viability, T/C (second compound 0.00949 µM, first compound 30 µM)?
**A.** 2.34%

**Q.** What about the viability, T/C (second compound 0.03 µM, first compound 0.0949 µM) of the same compound?
**A.** 1.56%

**Q.** What about the viability, T/C (second compound 0.03 µM, first compound 0.3 µM) of the same compound?
**A.** 1.76%

**Q.** What about the viability, T/C (second compound 0.03 µM, first compound 0.949 µM) of the same compound?
**A.** 1.49%

**Q.** What about the viability, T/C (second compound 0.03 µM, first compound 3 µM) of the same compound?
**A.** 1.64%

**Q.** And the viability, T/C (second compound 0.03 µM, first compound 9.49 µM)?
**A.** 1.62%

**Q.** And the viability, T/C (second compound 0.03 µM, first compound 30 µM)?
**A.** 1.56%

**Q.** And the viability, T/C (second compound 0.0949 µM, first compound 0.0949 µM)?
**A.** 1.91%

**Q.** What about the viability, T/C (second compound 0.0949 µM, first compound 0.3 µM) of the same compound?
**A.** 1.81%

**Q.** And the viability, T/C (second compound 0.0949 µM, first compound 0.949 µM)?
**A.** 1.99%

**Q.** What about the viability, T/C (second compound 0.0949 µM, first compound 3 µM) of the same compound?
**A.** 1.8%

**Q.** And the viability, T/C (second compound 0.0949 µM, first compound 9.49 µM)?
**A.** 1.74%

**Q.** And the viability, T/C (second compound 0.0949 µM, first compound 30 µM)?
**A.** 1.82%

**Q.** And the viability, T/C (second compound 0.3 µM, first compound 0.0949 µM)?
**A.** 2.04%

**Q.** What about the viability, T/C (second compound 0.3 µM, first compound 0.3 µM) of the same compound?
**A.** 1.92%

**Q.** What about the viability, T/C (second compound 0.3 µM, first compound 0.949 µM) of the same compound?
**A.** 2.02%

**Q.** What about the viability, T/C (second compound 0.3 µM, first compound 3 µM) of the same compound?
**A.** 1.92%

**Q.** And the viability, T/C (second compound 0.3 µM, first compound 9.49 µM)?
**A.** 1.99%

**Q.** What about the viability, T/C (second compound 0.3 µM, first compound 30 µM) of the same compound?
**A.** 2.21%
